In brackets after ≈: the same amount, converted by molar mass. Read-outs that look alike come from different tables or passages of the source.
Tests used:
C. neoformans = test: MIC testing (CLSI broth dilution); type: cell-based; settings: Cryptococcus neoformans
Experimental: (§1) MICs were determined using Clinical and Laboratory Standards Institute guidelines ([48], [49]). All yeasts were cultured overnight in 3 mL YPD at 30°C, then washed twice in sterile phosphate-buffered saline (PBS). Twofold serial dilutions of each drug were prepared in RMPI + MOPS, then 1 × 10^3 cells were added per well. For mold species, wells were inoculated with 1.25 × 10^3 conidia per well. Plates were incubated at 37°C for 24 (Candida spp. and S. cerevisiae), 48 (Aspergillus spp., M. circinelloides, S. apiospermum, and L. prolificans), or 72 (C. neoformans and F. oxysporum) hours. S. cerevisiae BY4743 MICs were tested in YPD due to nutritional requirements of this strain. Each assay was performed in technical duplicate in at least two independent experiments performed on different days.

C. neoformans H99 = test: Generation of resistant isolates (high-density plating, serial passaging); type: cell-based, Cryptococcus neoformans
Experimental: Finally, we attempted to generate resistant isolates to understand the rate of resistance and potentially uncover mechanism of action. First, to determine spontaneous rates, we performed high-density plating (~2 × 10^9 cells) of C. neoformans on YPD plates containing 64 µg/mL 1 ([24]). […] Next, we employed serial passaging of both C. neoformans H99 and Saccharomyces cerevisiae BY4741 to evaluate evolved resistance upon exposure to sub-MIC concentrations. Yeast cells were grown in a 96-well format in the presence of 1/4 MIC 1, then cultures were passaged to fresh media containing a twofold increase in drug concentration. At each passage, the inoculum was diluted ~1:100 to allow ~10 generations of growth for a total of at least 50 generations over the course of the experiment.

[1] = test system: A. fumigatus UPR-responsive genes; test: A. fumigatus UPR gene expression (qRT-PCR); type: cell-based, Aspergillus fumigatus
Experimental: We cultured 5 × 10^6 CEA10 conidia/mL in liquid GMM for 18 hours at 37°C with shaking at 250 rpm. Cultures were treated with either DMSO or 16 µg/mL 1 for 2 hours at 37°C, 250 rpm. Then 1 mM DTT or water was added, and cultures were incubated for an additional hour. Mycelia were collected with vacuum filtration and immediately frozen with liquid nitrogen. Tissue was lyophilized then ground with glass beads with a bead beater. RNA was extracted in 1 mL of TRIazole solution (Life Technologies, Cat # 15596026), then RNA was purified with two rounds of chloroform extraction. Five micrograms of RNA was treated with TURBO DNA-free kit (Invitrogen, Cat # AM1907) according to the manufacturer’s protocol. Five hundred nanograms of DNAse-treated RNA was used for cDNA synthesis with iScript cDNA synthesis kit (BioRad, Cat # 1708891), then cDNA was diluted 1:5 with ddH2O. Quantitative real time PCR analysis was performed in 20 µL reactions using 2 µL of dilute cDNA per reaction with iQ SYBR Green Supermix (BioRad). Samples were run on a BioRad CFX Connect using a three-step amplification with 54°C annealing temperature and melt curve analysis. Gene expression is normalized to tubA and tef1 expression. Gene expression was performed in biological triplicate. Primers to detect HacA splicing and targets were designed as previously described ([51]).

C. neoformans ∆ire1 = test: Susceptibility of ∆ire1 mutant on YPD plates; type: cell-based, Cryptococcus neoformans; settings: YPD with 4 or 16 µg/mL 1, 30 °C, 72 hours
Experimental: To determine interactions of 1 with ER stress in Cryptococcus neoformans, an overnight culture of H99 was diluted to 1 × 10^6 CFU/mL, then three 10-fold dilutions were prepared. Three-microliter spots of each cell dilution were plated in triplicate on YPD containing DMSO or 4 µg/mL 1 in combination with DTT, brefeldin A, or tunicamycin. Plates were incubated at 37°C for 72 hours. Images are representative of two independent experiments performed in biological triplicate.
Supplemental Figure 3. 1 interacts with ER stress in C. neoformans but activity is not dependent on Ire1. A) Serial dilutions of C. neoformans H99 on YPD with DMSO or 4 µg/mL 1 combined with ER stresses Brefeldin A (BfA), DTT, or Tunicamycin (Tun). Plates were incubated at 37 °C for 72 hours. Representative images of two independent experiments with three biological replicates each. B) Serial dilutions of C. neoformans H99 wild type and ∆ire1 mutant on YPD containing 4 µg/mL 1, 16 µg/mL 1 or DMSO incubated at 30 °C for 72 hours.
Representative images of two independent experiments with three biological replicates each.
(1 picture or pasted object on this page, not shown here)

A. fumigatus = test: MIC testing in the presence of 10% serum; type: cell-based, Aspergillus fumigatus
Experimental: as §1

[2] = Pharmacokinetics in mice (serum/plasma and brain); type: in vivo, CD-1 mice; settings: single 10 mg/kg intraperitoneal; for Cmax / half-life: female, CD-1, mouse, ip, CD1 mice; for half-life: read-out: half-life (T1/2)
Experimental: Twenty-one female CD-1 mice were dosed intraperitoneally with 10 mg/kg 1. Whole blood was collected in a syringe coated with ACD. Plasma was processed from whole blood by centrifugation at 10,000 rpm for 10 min. Brain tissue was harvested and gently washed with 1× PBS to remove residual circulating blood. The tissue was weighed and snap frozen in liquid nitrogen.
For the standards and quality controls, 98.0 and 98.8 µL of blank vendor plasma were added to a microfuge tube and spiked with 2.0 and 1.2 µL of initial standard. Standards, quality controls, and samples of 100 µL were then precipitated with 200 µL of methanol containing 0.15% formic acid and […]. The samples were vortexed 15 s, incubated at room temperature for 10 min, and centrifuged at 13,200 rpm twice in a standard microcentrifuge. The supernatant was then analyzed by LC-MS/MS. The vendor supplied the plasma used in standards and quality controls (QCs; lot # MSE460968, ACD anti-coagulant; Bioreclamation, LLC).
Brain tissues were homogenized in 3× volume of PBS. For the standards and quality control samples, 98.0 and 98.8 µL of pooled blank brain were added to a microfuge tube and spiked with 2.0 or 1.2 µL of initial standard. Standards, quality control samples of 100 µL, were then precipitated with 200 µL of methanol containing 0.15% formic acid and 12.5 ng/mL IS (final concentrations). The samples were vortexed for 15 s, incubated at room temperature for 10 min, and centrifuged at 13,200 rpm twice in a standard microcentrifuge. The supernatant was then analyzed by LC-MS/MS.

[3] = combination: 16 µg/mL 1 for 2 hours, then 1 mM DTT for 1 hour
[4] = single agent (16 µg/mL 1, or 1 mM DTT for 1 hour), normalized to DMSO

Compound: OC1CC(c2cc(N3CCC(CCc4ccccc4)CC3)ncn2)C1 (stereo not shown) [compound 1]
- MIC (C. neoformans; 72 h, strain H99, CLSI conditions): 1 µg/mL (≈ 2.96 µM)
- MIC (C. neoformans; strain DUMC118, clinical isolate, CLSI conditions): 2 µg/mL (≈ 5.93 µM)
- MIC (C. neoformans; strain DUMC138, clinical isolate, CLSI conditions): 1 µg/mL (≈ 2.96 µM)
- MIC (C. neoformans; strain JEC21, CLSI conditions): 2 µg/mL (≈ 5.93 µM)
- MIC (C. neoformans; strain not named): 2 µg/mL (≈ 5.93 µM)
- evolved resistance, serial passaging (C. neoformans H99; from 1/4 MIC, twofold increases, at least 50 generations): did not recover stable resistance
- spontaneous resistance, high-density plating (C. neoformans H99; ~2 × 10^9 cells on YPD with 64 µg/mL 1): unable to isolate resistant colonies
- increase in HacA^A splicing [1, 3]: 17 fold
- increase in HacA^B [1, 3]: 3 fold
- increase in BipA expression [1, 4]: 2 fold
- increase in PdiA expression [1, 4]: no change
- increase of spliced HacA (HacA^A) [1, 4]: about threefold
- susceptibility of ∆ire1 mutant vs wild type (C. neoformans ∆ire1): did not show increased susceptibility
- increase in MIC in the presence of 10% serum (A. fumigatus; A. fumigatus): 2 fold
- MIC (A. fumigatus; Aspergillus fumigatus, read-out: MIC w/serum): 32 µg/mL
- time of Cmax post-administration ([2]; brain tissue): 10 min
- Cmax ([2]; brain tissue): 2000 ng/g
- half-life ([2]; brain tissue): 4.92 h
- Cmax ([2]; serum/plasma): 491 ng/mL
- half-life ([2]; serum/plasma): 0.383 h
- time of Cmax post-administration ([2]; serum): 10 min
- blood-brain barrier penetration ([2]; mice): penetrated the blood-brain barrier

From paper PMC11302339, “A series of pyrimidine-based antifungals with anti-mold activity disrupt ER function in Aspergillus fumigatus” (Microbiology Spectrum, 2024)
